The values that follow are results of earlier work, collected in US20100120733A1, “STEROID MODULATORS OF GLUCOCORTICOID RECEPTOR” (AUSPEX PHARMACEUTICALS, INC., priority 2008, published 2010).

Each structure is given as a SMILES string.

For the data set the following is noted: pooled data.

As for `CC(C)C(=O)OCC(=O)[C@@]12O[C@H](C3CCCCC3)O[C@@H]1C[C@H]1[C@@H]3CCC4=CC(=O)C=C[C@]4(C)[C@H]3[C@@H](O)C[C@@]12C` [ciclesonide, 16,17-[[(R)-cyclohexylmethylene]bis(oxy)]-11-hydroxy-21-(2-methyl-1-oxopropoxy)-(11-beta,16-alpha)-pregna-1,4-diene-3,20-dione], the elimination half-life is 0.71 h.

Take `C[C@]12C=CC(=O)C=C1CC[C@@H]1[C@@H]2[C@@H](O)C[C@@]2(C)[C@H]1C[C@H]1O[C@@H](C3CCCCC3)O[C@]12C(=O)CO` [des-CIC, desisobutyryl-ciclesonide]: the elimination half-life was 3.5 h.
